# Measured values reported in paper PMC9120017, “Inhibition mechanism of the chloride channel TMEM16A by the pore blocker 1PBC” (Nature Communications, 2022).
# Where two headings read alike, the source gives them in different places.
# Molecular target: T1, mouse TMEM16A mutant K603Q (Mus musculus, UniProt Q8BHY3, K603Q)
# T1 construct: expressed in transfected cells; host or cells: HEK293T
# T1 sequence (Q8BHY3 1-960 K603Q): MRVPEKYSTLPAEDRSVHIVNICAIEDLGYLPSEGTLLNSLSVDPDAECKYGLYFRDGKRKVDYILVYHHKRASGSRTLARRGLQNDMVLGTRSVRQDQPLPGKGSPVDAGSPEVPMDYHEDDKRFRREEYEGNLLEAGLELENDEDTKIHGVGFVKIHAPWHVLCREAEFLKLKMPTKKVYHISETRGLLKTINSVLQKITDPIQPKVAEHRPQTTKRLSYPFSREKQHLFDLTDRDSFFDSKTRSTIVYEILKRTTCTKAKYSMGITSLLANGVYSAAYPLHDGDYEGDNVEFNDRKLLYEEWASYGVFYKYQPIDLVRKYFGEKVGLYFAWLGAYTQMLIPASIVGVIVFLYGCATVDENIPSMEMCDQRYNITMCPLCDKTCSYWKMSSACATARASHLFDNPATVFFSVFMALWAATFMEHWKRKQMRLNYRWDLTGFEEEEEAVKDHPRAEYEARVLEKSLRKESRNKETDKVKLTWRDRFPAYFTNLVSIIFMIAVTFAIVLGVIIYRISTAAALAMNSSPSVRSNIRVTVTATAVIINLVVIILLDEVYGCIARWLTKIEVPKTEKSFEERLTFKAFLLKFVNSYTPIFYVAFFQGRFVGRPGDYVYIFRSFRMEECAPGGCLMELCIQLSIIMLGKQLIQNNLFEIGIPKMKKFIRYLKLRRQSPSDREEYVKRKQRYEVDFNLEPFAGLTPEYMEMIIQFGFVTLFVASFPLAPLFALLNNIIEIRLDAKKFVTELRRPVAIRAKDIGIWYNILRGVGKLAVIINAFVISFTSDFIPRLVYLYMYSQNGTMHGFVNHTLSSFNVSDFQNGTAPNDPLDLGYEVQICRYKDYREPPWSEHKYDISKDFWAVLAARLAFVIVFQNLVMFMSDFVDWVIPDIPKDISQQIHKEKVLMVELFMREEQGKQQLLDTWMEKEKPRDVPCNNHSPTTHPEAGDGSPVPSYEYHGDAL
# Test: Inside-out patch recording of 1PBC block, mutant K603Q
# Format: cell-based
# Experimental: HEK293T cells (ATCC CRL-1573) were maintained in Dulbecco’s modified Eagle’s medium (DMEM; Sigma-Aldrich) supplemented with 10 U ml^−1 penicillin, 0.1 mg ml^−1 streptomycin (Sigma-Aldrich), 2 mM L-glutamine (Sigma-Aldrich), and 10% FBS (Sigma-Aldrich) in a humidified atmosphere containing 5% CO2 at 37 °C. HEK293S GnTI^− cells (ATCC CRL-3022) were maintained in HyClone HyCell TransFx-H medium (GE Healthcare) supplemented with 10 U ml^−1 penicillin, 0.1 mg ml^−1 streptomycin, 4 mM L-glutamine, 0.15% poloxamer 188 (Sigma-Aldrich), and 1% FBS in an atmosphere containing 5% CO2 at 185 rpm at 37 °C. The ac splice variant of mouse TMEM16A (UniProt ID: Q8BHY3), mouse TMEM16B (UniProt ID: Q8CFW1), or mouse TMEM16F (UniProt ID: Q6P9J9) bearing a 3C cleavage site, a Venus YFP, a Myc tag, and a Streptavidin-binding peptide (SBP) downstream of the open reading frame in a modified pcDNA3.1 vector (Invitrogen) were used as described previously[21],[31]. Mutations were introduced using a modified QuikChange method[58] and were verified by sequencing.
# HEK293T cells were transfected with 3–4 μg DNA per 6 cm Petri dish using the calcium phosphate co-precipitation method and were used within 24–96 h after transfection. Recordings were performed on inside-out patches excised from HEK293T cells expressing the construct of interest. Patch pipettes were pulled from borosilicate glass capillaries (O.D. 1.5 mm, I.D. 0.86 mm, Sutter Instrument) and were fire-polished with a microforge (Narishige) before use. Pipette resistance was typically 3–8 MΩ when filled with the recording solutions detailed below. Seal resistance was typically 4 GΩ or higher. Voltage-clamp recordings were made using Axopatch 200B, Digidata 1550, and Clampex 10.7 (Molecular Devices). Analog signals were filtered with the in-built 4-pole Bessel filter at 10 kHz and were digitized at 20 kHz. Solution exchange was achieved using a gravity-fed system through a theta glass pipette mounted on an ultra-fast piezo-driven stepper (Siskiyou). […] All recordings were performed at 20 °C.
# A symmetrical ionic condition was used throughout. Stock solution with Ca^2+-EGTA contained 150 mM NaCl, 5.99 mM Ca(OH)2, 5 mM EGTA, and 10 mM HEPES at pH 7.40. Stock solution with EGTA contained 150 mM NaCl, 5 mM EGTA, and 10 mM HEPES at pH 7.40. Free Ca^2+ concentrations were adjusted by mixing the stock solutions at the required ratios calculated using the WEBMAXC program (http://web.stanford.edu/~cpatton/webmaxcS.htm). Patch pipettes were filled with the stock solution with Ca^2+-EGTA, which has a free Ca^2+ concentration of 1 mM. 1PBC (ChemBridge) stock was reconstituted in anhydrous DMSO (Sigma-Aldrich) at 100 mM and stored at −20 °C. Working solutions with 1PBC were prepared by serial dilution. Unless otherwise stated, experiments were performed at a saturating Ca^2+ concentration as shown in Supplementary Table 1 and the primary data were corrected for current rundown as described previously[21],[25].
# Concentration-response relations, obtained from the ratio of the I-V plots before and after the application of the blocker, were fitted to the Hill equation,1 I/Imax=1/1+IC50/[blocker]^h where I/Imax is the normalized current responses, IC50 defines the concentration at which inhibition is at its half-maximum, and h is the Hill coefficient.
smiles,measurement,setting,value
N#Cc1c(C(F)(F)F)cc(O)n2c1nc1ccccc12 [1PBC],IC50,"0 mV, 4 µM Ca2+",193 µM
same,remaining activity at 10 µM,"0 mV, 1PBC conc 10, read-out: relative current in 1PBC (avr)",94.4%
same,remaining activity at 30 µM,"0 mV, 1PBC conc 30, read-out: relative current in 1PBC (avr)",85.8%
same,remaining activity at 100 µM,"0 mV, 1PBC conc 100, read-out: relative current in 1PBC (avr)",66.3%
same,remaining activity at 10 µM,"10 µM 1PBC, +80 mV, saturating Ca2+ (4 µM), read-out: I/Imax",95.1%
same,remaining activity at 10 µM,"10 µM 1PBC, -80 mV, saturating Ca2+ (4 µM), read-out: I/Imax",92.8%
same,remaining activity at 30 µM,"30 µM 1PBC, +80 mV, saturating Ca2+ (4 µM), read-out: I/Imax",87%
same,remaining activity at 30 µM,"30 µM 1PBC, -80 mV, saturating Ca2+ (4 µM), read-out: I/Imax",86.9%
same,remaining activity at 100 µM,"100 µM 1PBC, +80 mV, saturating Ca2+ (4 µM), read-out: I/Imax",65.4%
same,remaining activity at 100 µM,"100 µM 1PBC, -80 mV, saturating Ca2+ (4 µM), read-out: I/Imax",66.1%
same,IC50,"20 mV, 4 µM Ca2+",206 µM
same,remaining activity at 10 µM,"20 mV, 1PBC conc 10, read-out: relative current in 1PBC (avr)",96.5%
same,remaining activity at 30 µM,"20 mV, 1PBC conc 30, read-out: relative current in 1PBC (avr)",87.2%
same,remaining activity at 100 µM,"20 mV, 1PBC conc 100, read-out: relative current in 1PBC (avr)",67.1%
same,IC50,"40 mV, 4 µM Ca2+",190 µM
same,remaining activity at 10 µM,"40 mV, 1PBC conc 10, read-out: relative current in 1PBC (avr)",94.6%
same,remaining activity at 30 µM,"40 mV, 1PBC conc 30, read-out: relative current in 1PBC (avr)",87.4%
same,remaining activity at 100 µM,"40 mV, 1PBC conc 100, read-out: relative current in 1PBC (avr)",65%
same,IC50,"60 mV, 4 µM Ca2+",196 µM
same,remaining activity at 10 µM,"60 mV, 1PBC conc 10, read-out: relative current in 1PBC (avr)",95%
same,remaining activity at 30 µM,"60 mV, 1PBC conc 30, read-out: relative current in 1PBC (avr)",86.3%
same,remaining activity at 100 µM,"60 mV, 1PBC conc 100, read-out: relative current in 1PBC (avr)",66.4%
same,log-fold IC50 (change of mutant vs WT),80 mV,1.991
same,IC50,"80 mV, 4 µM Ca2+",192 µM
same,remaining activity at 10 µM,"80 mV, 1PBC conc 10, read-out: relative current in 1PBC (avr)",95.1%
same,remaining activity at 30 µM,"80 mV, 1PBC conc 30, read-out: relative current in 1PBC (avr)",87%
same,remaining activity at 100 µM,"80 mV, 1PBC conc 100, read-out: relative current in 1PBC (avr)",65.4%
same,IC50,"100 mV, 4 µM Ca2+",197 µM
same,remaining activity at 10 µM,"100 mV, 1PBC conc 10, read-out: relative current in 1PBC (avr)",95.8%
same,remaining activity at 30 µM,"100 mV, 1PBC conc 30, read-out: relative current in 1PBC (avr)",87.5%
same,remaining activity at 100 µM,"100 mV, 1PBC conc 100, read-out: relative current in 1PBC (avr)",65.8%
same,IC50,"120 mV, 4 µM Ca2+",198 µM
same,remaining activity at 10 µM,"120 mV, 1PBC conc 10, read-out: relative current in 1PBC (avr)",97.2%
same,remaining activity at 30 µM,"120 mV, 1PBC conc 30, read-out: relative current in 1PBC (avr)",88.7%
same,remaining activity at 100 µM,"120 mV, 1PBC conc 100, read-out: relative current in 1PBC (avr)",65%
same,IC50,"140 mV, 4 µM Ca2+",196 µM
same,remaining activity at 10 µM,"140 mV, 1PBC conc 10, read-out: relative current in 1PBC (avr)",97.5%
same,remaining activity at 30 µM,"140 mV, 1PBC conc 30, read-out: relative current in 1PBC (avr)",89.1%
same,remaining activity at 100 µM,"140 mV, 1PBC conc 100, read-out: relative current in 1PBC (avr)",64.5%
same,IC50,"-20 mV, 4 µM Ca2+",180 µM
same,remaining activity at 10 µM,"-20 mV, 1PBC conc 10, read-out: relative current in 1PBC (avr)",92.4%
same,remaining activity at 30 µM,"-20 mV, 1PBC conc 30, read-out: relative current in 1PBC (avr)",84.5%
same,remaining activity at 100 µM,"-20 mV, 1PBC conc 100, read-out: relative current in 1PBC (avr)",65.5%
same,IC50,"-40 mV, 4 µM Ca2+",187 µM
same,remaining activity at 10 µM,"-40 mV, 1PBC conc 10, read-out: relative current in 1PBC (avr)",93.3%
same,remaining activity at 30 µM,"-40 mV, 1PBC conc 30, read-out: relative current in 1PBC (avr)",86.6%
same,remaining activity at 100 µM,"-40 mV, 1PBC conc 100, read-out: relative current in 1PBC (avr)",65.2%
same,IC50,"-60 mV, 4 µM Ca2+",193 µM
same,remaining activity at 10 µM,"-60 mV, 1PBC conc 10, read-out: relative current in 1PBC (avr)",93.8%
same,remaining activity at 30 µM,"-60 mV, 1PBC conc 30, read-out: relative current in 1PBC (avr)",84.7%
same,remaining activity at 100 µM,"-60 mV, 1PBC conc 100, read-out: relative current in 1PBC (avr)",67.1%
same,IC50,"-80 mV, 4 µM Ca2+",193 µM
same,remaining activity at 10 µM,"-80 mV, 1PBC conc 10, read-out: relative current in 1PBC (avr)",92.8%
same,remaining activity at 30 µM,"-80 mV, 1PBC conc 30, read-out: relative current in 1PBC (avr)",86.9%
same,remaining activity at 100 µM,"-80 mV, 1PBC conc 100, read-out: relative current in 1PBC (avr)",66.1%
same,IC50,"-100 mV, 4 µM Ca2+",199 µM
same,remaining activity at 10 µM,"-100 mV, 1PBC conc 10, read-out: relative current in 1PBC (avr)",95.1%
same,remaining activity at 30 µM,"-100 mV, 1PBC conc 30, read-out: relative current in 1PBC (avr)",86.6%
same,remaining activity at 100 µM,"-100 mV, 1PBC conc 100, read-out: relative current in 1PBC (avr)",66.7%
same,IC50,"-120 mV, 4 µM Ca2+",202 µM
same,remaining activity at 10 µM,"-120 mV, 1PBC conc 10, read-out: relative current in 1PBC (avr)",94.9%
same,remaining activity at 30 µM,"-120 mV, 1PBC conc 30, read-out: relative current in 1PBC (avr)",86.9%
same,remaining activity at 100 µM,"-120 mV, 1PBC conc 100, read-out: relative current in 1PBC (avr)",67%
same,IC50,"-140 mV, 4 µM Ca2+",216 µM
same,remaining activity at 10 µM,"-140 mV, 1PBC conc 10, read-out: relative current in 1PBC (avr)",96.6%
same,remaining activity at 30 µM,"-140 mV, 1PBC conc 30, read-out: relative current in 1PBC (avr)",88.1%
same,remaining activity at 100 µM,"-140 mV, 1PBC conc 100, read-out: relative current in 1PBC (avr)",68%
same,IC50,"K603Q, V 0 mV",193 µM
same,IC50,"K603Q, V 20 mV",206 µM
same,IC50,"K603Q, V 40 mV",190 µM
same,IC50,"K603Q, V 60 mV",196 µM
same,IC50,"K603Q, V 80 mV",192 µM
same,IC50,"K603Q, V 100 mV",197 µM
same,IC50,"K603Q, V 120 mV",198 µM
same,IC50,"K603Q, V 140 mV",196 µM
same,IC50,"K603Q, V -20 mV",180 µM
same,IC50,"K603Q, V -40 mV",187 µM
same,IC50,"K603Q, V -60 mV",193 µM
same,IC50,"K603Q, V -80 mV",193 µM
same,IC50,"K603Q, V -100 mV",199 µM
same,IC50,"K603Q, V -120 mV",202 µM
same,IC50,"K603Q, V -140 mV",216 µM
same,Lowering of the potency of block vs WT,Lys 603 to glutamine,about 100 fold
